According to ChEMBL document CHEMBL5465560, “Selectivity Literature for EUbOPEN Chemogenomic Library” (2024):

What was measured:
[1] = biological target: T1, Serine/threonine-protein kinase TBK1 (Homo sapiens) (UniProt Q9UHD2); assay: Selectivity interaction (KinomeScan (DiscoverX)) EUB0000666a TBK1; details: at 10 µM
T1 sequence (whole entry): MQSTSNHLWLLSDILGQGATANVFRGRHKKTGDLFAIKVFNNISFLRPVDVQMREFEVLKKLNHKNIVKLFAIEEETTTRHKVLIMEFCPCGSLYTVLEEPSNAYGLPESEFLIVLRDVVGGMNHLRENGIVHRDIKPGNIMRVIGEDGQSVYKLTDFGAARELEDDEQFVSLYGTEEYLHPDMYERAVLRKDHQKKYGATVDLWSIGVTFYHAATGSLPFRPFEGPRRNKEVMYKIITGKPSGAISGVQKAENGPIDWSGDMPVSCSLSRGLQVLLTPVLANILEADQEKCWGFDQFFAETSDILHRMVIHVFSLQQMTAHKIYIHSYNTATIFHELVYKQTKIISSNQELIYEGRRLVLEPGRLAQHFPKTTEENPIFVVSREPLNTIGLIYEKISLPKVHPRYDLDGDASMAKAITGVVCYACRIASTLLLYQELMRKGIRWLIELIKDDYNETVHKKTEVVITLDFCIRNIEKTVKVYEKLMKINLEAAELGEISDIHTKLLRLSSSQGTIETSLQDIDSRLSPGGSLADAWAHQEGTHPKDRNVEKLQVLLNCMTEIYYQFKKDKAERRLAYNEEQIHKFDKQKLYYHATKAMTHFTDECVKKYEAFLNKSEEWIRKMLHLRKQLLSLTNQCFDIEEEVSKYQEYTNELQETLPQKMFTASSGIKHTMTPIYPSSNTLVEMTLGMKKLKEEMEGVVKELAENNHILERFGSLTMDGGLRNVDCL

[2] = biological target: T2, Mitogen-activated protein kinase kinase kinase 5 (Homo sapiens) (UniProt Q99683); assay: Selectivity interaction (ActivX KiNativ screen (kinase selectivity in THP-1 cell lysates)) EUB0000639a MAP3K5; assay type: subcellular; details: lysate, at 0.04 µM
T2 sequence (whole entry): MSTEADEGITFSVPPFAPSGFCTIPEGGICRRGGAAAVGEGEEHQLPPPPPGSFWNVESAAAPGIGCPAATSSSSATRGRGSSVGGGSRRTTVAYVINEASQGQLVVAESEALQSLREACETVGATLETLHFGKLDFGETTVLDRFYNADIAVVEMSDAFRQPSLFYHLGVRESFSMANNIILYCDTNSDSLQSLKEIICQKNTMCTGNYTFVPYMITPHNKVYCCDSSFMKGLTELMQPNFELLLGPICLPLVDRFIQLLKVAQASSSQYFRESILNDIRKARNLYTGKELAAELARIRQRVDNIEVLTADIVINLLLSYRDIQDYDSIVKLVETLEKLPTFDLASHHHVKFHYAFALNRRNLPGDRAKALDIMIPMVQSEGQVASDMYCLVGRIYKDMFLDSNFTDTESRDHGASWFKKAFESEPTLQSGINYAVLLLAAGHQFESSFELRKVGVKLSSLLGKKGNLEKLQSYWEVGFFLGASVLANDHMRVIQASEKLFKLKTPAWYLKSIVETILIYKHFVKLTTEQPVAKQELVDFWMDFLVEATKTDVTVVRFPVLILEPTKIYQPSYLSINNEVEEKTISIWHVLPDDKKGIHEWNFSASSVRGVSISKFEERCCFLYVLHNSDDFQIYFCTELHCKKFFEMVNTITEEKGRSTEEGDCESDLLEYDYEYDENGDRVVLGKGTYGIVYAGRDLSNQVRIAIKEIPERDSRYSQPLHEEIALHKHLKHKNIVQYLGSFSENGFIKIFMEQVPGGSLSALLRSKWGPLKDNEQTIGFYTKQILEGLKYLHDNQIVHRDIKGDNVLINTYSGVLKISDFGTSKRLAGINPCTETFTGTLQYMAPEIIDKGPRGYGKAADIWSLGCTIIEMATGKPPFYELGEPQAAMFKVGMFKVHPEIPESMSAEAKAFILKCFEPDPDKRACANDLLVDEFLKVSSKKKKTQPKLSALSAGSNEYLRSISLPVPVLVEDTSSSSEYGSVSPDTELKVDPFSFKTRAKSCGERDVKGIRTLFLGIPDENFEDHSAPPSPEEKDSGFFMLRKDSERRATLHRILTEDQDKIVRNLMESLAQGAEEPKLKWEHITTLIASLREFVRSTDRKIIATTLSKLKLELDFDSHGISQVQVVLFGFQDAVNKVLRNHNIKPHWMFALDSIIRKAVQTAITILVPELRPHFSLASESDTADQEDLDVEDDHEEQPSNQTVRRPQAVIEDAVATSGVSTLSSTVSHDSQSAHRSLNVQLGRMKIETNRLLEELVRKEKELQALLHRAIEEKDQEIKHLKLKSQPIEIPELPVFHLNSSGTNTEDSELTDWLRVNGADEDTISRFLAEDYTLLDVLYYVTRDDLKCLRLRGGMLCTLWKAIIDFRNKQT

| Compound | % of control [1] | % of inhibition [2] |
| --- | --- | --- |
| O=C(NOC[C@H](O)CO)c1ccc(F)c(F)c1Nc1ccc(I)cc1F | 85% |  |
| CC[C@@H]1[C@H](F)C(=O)N[C@@H]1COc1nccc2cc(C(N)=O)c(OC)cc12 [ZIMLOVISERTIB] |  | -7.7% |
